This passage reports viability results from article PMC12040169 (PLOS Biology, 2025).

This data set in a line: in vitro. The note with it: human, hela cells, % viability.

One may read the viability as a read-out of living cells in per cent, often relative to untreated cells.

With `O=C1N2CCSC2=NC1(Nc1nccs1)C(F)(F)F` (stereo not shown) [CBK267484], the viability at 28.5 h, 10 µM was 84.1%.
To `Cc1[nH]c2cccc(C(=O)N3CCOC(C)(C(=O)NC4CCCC4)C3)c2c1C` (stereo not shown) [CBK285800] belongs 87.3%; to `Cc1ccc2ccc(S(=O)(=O)NCc3cccnc3)cc2c1` [CBK262072], 98.8%; to `Cc1cc(NC(=O)CN2CCN(Cc3ccccc3C#N)CC2)no1` [CBK305644], 77.3%.
For the compound `COc1ccc(Cc2c(C)nc3c(C(=O)NCC4CCCO4)cnn3c2C)cc1` (stereo not shown) [CBK162183], the viability at 28.5 h, 10 µM came out at 88.5%.
With `O=C(NCc1ccccn1)c1cncc(Br)c1` [CBK265226], the viability at 28.5 h, 10 µM turned out to be 88.1%.
Take `CCOC(=O)CNS(=O)(=O)c1cc(Cl)sc1Cl` [CBK034431]: the viability at 28.5 h, 10 µM was 113%.
For `O=C(NC(=S)Nc1cccc2ncccc12)c1ccc(N2CCOCC2)c([N+](=O)[O-])c1` [CBK267608], the viability at 28.5 h, 10 µM amounted to 87.8%.
To `O=C(c1ccc(F)cc1)[C@H]1CCCN(C(=O)c2cc[nH]n2)C1` [CBK284331] belongs 87.3%; to `O=C(Nc1ccccc1)N1C[C@@H]2C[C@H](C1)c1c(-c3cccnc3)ccc(=O)n1C2` [CBK289193], 92.3%.
The figure for `O=C1CN(Cc2ccccc2)C(=O)N1CC1CCCCC1` [CBK162367] is 93.7%.
The figure for `Cc1cccc(NC(=O)NC(=O)C2CCN(CCOc3ccccc3)CC2)c1` [CBK034868] is 89.9%; for `O=S(=O)(c1ccccc1)N1CCC(c2cc3ncccc3[nH]2)CC1` [CBK283397] it is 104%.
As for `Nc1ncc(-c2cccc(-c3ccccc3)c2)nc1N1CCN(CCO)CC1` [CBK063410], the viability at 28.5 h, 10 µM was 113%.
With `Clc1ccc(-c2cc(N3CCN(c4ccccn4)CC3)ncn2)cc1` [CBK091085], the viability at 28.5 h, 10 µM is 112%.
The figure for `CC(C)(C)C(=O)NC(N(Cc1ccccc1)Cc1ccccc1)C(Cl)(Cl)Cl` (stereo not shown) [CBK261023] is 97.7%; for `CC(C)c1nccn1CCCNC(=O)N1CCCC(c2ccncn2)C1` (stereo not shown) [CBK307448] it is 88.7%; for `Cn1c2c(c(=O)[nH]c1=O)C1(O)C(=O)c3ccccc3C1(O)N2` (stereo not shown) [CBK261683] it is 105%.
In the case of `COc1ccc(NS(=O)(=O)c2ccc3c(c2)oc(=O)c2cc(S(=O)(=O)Nc4ccc(OC)cc4)ccc23)cc1` [CBK268439], the viability at 28.5 h, 10 µM came out at 104%.
As to `COc1cc(CNc2cc(-c3ccccc3N(C)C)ncn2)cc(OC)c1OC` [CBK037123], the viability at 28.5 h, 10 µM came out at 93.1%.
To `CN1CCN(c2nc3c(c(=O)n(C)c(=O)n3C)n2CCSc2nc3ccccc3o2)CC1` [CBK269452] belongs 90%.
To `COCCn1c(SC)nc2sc(-c3ccccc3)cc2c1=O` [CBK295200] belongs 89.8%; to `CSc1ccccc1Nc1ncnc2n[nH]cc12` [CBK288099], 114%.
With `CSCCC(NC(=O)NCCc1ccccc1)c1nnc2ccccn12` (stereo not shown) [CBK304417], the viability at 28.5 h, 10 µM came out at 102%.
With `O=C(NCc1ccc2c(c1)OCO2)c1ccc2c(c1)C(=O)N(Cc1cccnc1)C2=O` [CBK267824], the viability at 28.5 h, 10 µM was 89.3%.
For the compound `COc1ccc(-c2csc(Nc3ccc(N)cc3)n2)cc1OC` [CBK074456], the viability at 28.5 h, 10 µM stood at 83.4%.
On to `Cc1nc(C)n(CC2CCCN(Cc3cn4c(C)cccc4n3)C2)n1` (stereo not shown) [CBK304007], for which the viability at 28.5 h, 10 µM is 97.7%.
Turning to `Cc1ccccc1-c1noc(CSc2nnc(-c3ccncc3)n2-c2ccc(F)cc2)n1` [CBK269089], the viability at 28.5 h, 10 µM worked out at 96.8%.
For the compound `CSc1nnc(-c2ccco2)n1-c1cccc(Cl)c1C` [CBK067723], the viability at 28.5 h, 10 µM amounted to 93.1%.
Consider `Cc1nn(C(C)CC(=O)NCCN2CCC(C)CC2)c(C)c1Cl` (stereo not shown) [CBK281558], for which the viability at 28.5 h, 10 µM is 90.2%.
To `CSc1ccccc1NC(=O)CN(c1ccc(F)cc1)S(=O)(=O)c1ccc2c(c1)OCCO2` [CBK266836] belongs 101%.
